These results are taken from PubChem BioAssay (NCI).

Assay in all cases: NCI tumour cell line growth inhibition, 48 h
The subject of assay [1] is SK-MEL-28 melanoma.
The test system of assay [2] is U251 CNS.
In assay [3] the test system is HCT-116 colon.
In assay [4] the test system is DU-145 prostate.
The test system of assay [5] is SN12C renal.
Assay [6] has as its system SK-MEL-5 melanoma.
In assay [7] the test system is MOLT-4 leukemia.
In assay [8] the test system is BT-549 breast.
The subject of assay [9] is SNB-19 CNS.
Assay [10] has as its system NCI-H460 lung.

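Exposure lasted 48 hours, with cells grown in 96-well plates and compounds tested at five concentrations. GI50: concentration for 50% inhibition of growth. At the TGI there is no net growth.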

Regarding `COc1ccc2nc(-c3ccccc3)cc(Nc3cccc(C(C)=O)c3)c2c1`, the GI50 in assay [1] is 12.4 µM; in [2] it was 1.96 µM; in assay [3], 3.72 µM; in assay [4], 13.2 µM; in [5], 3.96 µM; in assay [6], 8.89 µM. The GI50 in assay [7] was 7.57 µM; in assay [8], 18.2 µM; in assay [9], 17.2 µM; in [10] it was 6.38 µM. Moreover, the TGI in [1] turned out to be 43.4 µM; in assay [2] it was 16.8 µM; in assay [3] it was 15.4 µM; in assay [4], 32.3 µM; in assay [5], 17.9 µM; in [6] it was 24.3 µM. For the same compound, the TGI in assay [7] is more than 100 µM; in assay [8], 40.3 µM; in [9] it was more than 100 µM; in [10], 40.7 µM.

As for `NC(=O)CC1(O)C=C(Br)C(=O)C(Br)=C1`, the GI50 in assay [1] was 1.87 µM; in [2] it was 10.6 µM; in [3], 0.392 µM; in [4], 6.05 µM; in assay [5] it was 9.05 µM; in [6] it was 12.5 µM. Also, the GI50 in [7] was 2.29 µM; in assay [8], 1.91 µM; in assay [9] it was 18.1 µM; in assay [10], 18.5 µM. Further, the TGI worked out at 3.7 µM in assay [1]; 24.1 µM in assay [2]; 10.7 µM in assay [3]; 19 µM in [4]; 23.4 µM in [5]; 25.6 µM in assay [6]. Also, the TGI in assay [7] stood at 5.35 µM; in [8] it was 6.97 µM; in assay [9] it was 32.6 µM; in assay [10], 37 µM.

On to `O=c1c2ccccc2nc(-c2ccccc2Cl)n1-c1nnc(C(F)(F)F)s1`, for which the GI50 is 4.63 µM in [1]; 2.46 µM in assay [2]; 2.7 µM in assay [3]; 5.03 µM in assay [4]; 3.01 µM in [5]; 1.99 µM in [6]. Further, the GI50 in assay [7] was 3.99 µM; in assay [8], 3.36 µM; in assay [9], 3.66 µM; in assay [10], 3.38 µM. Besides, the TGI in assay [1] is 90.9 µM; in assay [2] it was 12.9 µM; in [3], 10.1 µM; in assay [4], more than 100 µM; in assay [5], more than 100 µM; in assay [6], 4.91 µM. For the same compound, the TGI was 20.4 µM in [7], 10.9 µM in assay [8], more than 100 µM in [9] and 23.3 µM in assay [10].

Consider `CCN(CC)CCC(CNc1ccnc2cc(Cl)ccc12)c1ccccc1` (centres undefined), for which the GI50 was 1.92 µM in assay [1]; 3.93 µM in assay [2]; 2.8 µM in assay [3]; 32.9 µM in [4]; 16.3 µM in assay [5]; 1.69 µM in assay [6]. In addition, the GI50 is 4.66 µM in assay [7], 10.8 µM in [8], 16.2 µM in [9] and 8.36 µM in assay [10]. The TGI was 3.45 µM in [1]; 14 µM in [2]; 15.4 µM in assay [3]; more than 100 µM in assay [4]; more than 100 µM in assay [5]; 3.07 µM in [6]. In addition, the TGI stood at 58.2 µM in [7], 24.6 µM in assay [8], 74.1 µM in assay [9] and 29 µM in assay [10].

Regarding `O=c1ccc(=O)n(-c2ccccc2)[nH]1`, the TGI in [1], in assay [2], in assay [3], in [4], in assay [5] and in assay [6] was more than 100 µM in each case. For the same compound, the TGI in [7], in [8], in assay [9] and in [10] was more than 100 µM throughout.

As for `O=C(COc1ccc(OCC(=O)N2C(=O)CN(c3ccccc3)C2=S)cc1)N1C(=O)CN(c2ccccc2)C1=S`, the GI50 is more than 25 µM in assay [1]; more than 25 µM in assay [2]; more than 25 µM in assay [3]; more than 25 µM in assay [4]; more than 25 µM in [5]; more than 100 µM in assay [6]. Moreover, the GI50 in assay [7] is more than 100 µM; in assay [9], more than 25 µM; in [10], more than 25 µM. Further, the TGI in [1], in assay [2], in [3], in assay [4], in [5] and in [6] was more than 100 µM throughout. The TGI in assay [7], in assay [8], in assay [9] and in assay [10] was more than 100 µM each time.

For `COc1cccc(C2=C(c3cn(C)c4cc(F)ccc34)C(=O)NC2=O)c1`, the GI50 in assay [1] is more than 25 µM; in [2], more than 17.2 µM; in [3] it was 8.59 µM; in assay [4] it was more than 25 µM; in [5] it was more than 21.5 µM; in assay [6], 11 µM. In addition, the GI50 was 11.1 µM in assay [7], more than 24 µM in [8], more than 25 µM in assay [9] and more than 18.6 µM in assay [10]. Besides, the TGI is more than 25 µM in assay [1]; more than 25 µM in [2]; more than 25 µM in [3]; more than 25 µM in [4]; more than 25 µM in assay [5]; more than 21 µM in [6]. For the same compound, the TGI in assay [7], in assay [8], in [9] and in [10] was more than 25 µM throughout.

Turning to `CN1CCN(c2ccc(NC(=O)c3cncnc3Nc3ccc(OCc4cccc(F)c4)c(Cl)c3)cc2)CC1`, the GI50 in assay [1] was 0.849 µM; in assay [2] it was 1.07 µM; in [3] it was 0.966 µM; in [4], 4.9 µM; in assay [5], 1.13 µM; in assay [6], 1.55 µM. Further, the GI50 in [7] was 0.907 µM; in assay [8] it was more than 50 µM; in assay [9] it was 2.81 µM; in assay [10] it was 1.14 µM. Moreover, the TGI in [1] is 1.56 µM; in assay [2], 2.52 µM; in [3], 2.12 µM; in assay [4], more than 50 µM; in assay [5], 2.75 µM; in [6] it was 5.2 µM. In addition, the TGI in assay [7] was 2.28 µM; in assay [8], more than 50 µM; in [9], 18.7 µM; in assay [10], 2.47 µM.
